Reference: patent US20070275948A1, “7-[4-(4-Chlorobenzyloxy)Benzenesulfonyl]-8-Methoxy-3-Methyl-2,3,4,5-Tetrahydro-1h-3-Benzazepinium Maleate Or Tosylate As antipyschotics” (priority 2003, published 2007)

Experiments:
[1] = Hygroscopicity / solid-state stability to humidity; settings: for stability with respect to hygroscopicity and loss of water / changes when exposed to very high humidity: anhydrates; for stability over the free base and over the hydrochloride salt, particularly with respect to hygroscopicity: compared with free base and hydrochloride salt
[2] = biological target: dopamine D2 receptor (Homo sapiens, UniProt P14416); assay: Affinity for dopamine D2 receptor; assay type: binding
[3] = biological target: dopamine D3 receptor (Homo sapiens, UniProt P35462); assay: Affinity for dopamine D3 receptor; assay type: binding; settings: for affinity for dopamine D3 relative to D2 receptors: D3 versus D2
[4] = biological target: T1, serotonin 5-HT2C receptor (Homo sapiens, UniProt P28335); assay: Antagonist affinity for serotonin 5-HT2C receptor; assay type: binding
T1 sequence (P28335 33-458): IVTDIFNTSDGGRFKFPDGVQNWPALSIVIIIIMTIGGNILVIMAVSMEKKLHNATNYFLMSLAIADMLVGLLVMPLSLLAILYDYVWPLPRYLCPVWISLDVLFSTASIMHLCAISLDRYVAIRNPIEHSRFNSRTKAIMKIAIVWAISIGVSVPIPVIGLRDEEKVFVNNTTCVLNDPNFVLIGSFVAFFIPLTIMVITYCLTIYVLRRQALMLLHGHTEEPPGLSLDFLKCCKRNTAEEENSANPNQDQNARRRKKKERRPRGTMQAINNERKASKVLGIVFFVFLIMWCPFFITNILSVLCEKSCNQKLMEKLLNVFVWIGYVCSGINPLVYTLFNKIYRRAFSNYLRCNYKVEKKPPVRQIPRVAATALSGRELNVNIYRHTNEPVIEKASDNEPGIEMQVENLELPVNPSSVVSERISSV

dopamine D3 receptor, sequence (P35462 whole entry, species assumed): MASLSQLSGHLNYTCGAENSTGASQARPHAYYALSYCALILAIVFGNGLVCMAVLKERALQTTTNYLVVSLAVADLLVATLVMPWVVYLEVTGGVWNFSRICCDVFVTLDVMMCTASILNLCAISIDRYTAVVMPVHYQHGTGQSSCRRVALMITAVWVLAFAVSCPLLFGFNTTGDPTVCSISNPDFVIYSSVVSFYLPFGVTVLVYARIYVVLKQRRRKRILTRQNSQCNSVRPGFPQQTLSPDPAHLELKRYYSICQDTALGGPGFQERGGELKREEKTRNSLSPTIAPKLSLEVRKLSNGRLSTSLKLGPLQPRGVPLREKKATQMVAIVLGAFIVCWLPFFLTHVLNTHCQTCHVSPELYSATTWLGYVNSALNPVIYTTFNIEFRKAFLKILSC
dopamine D2 receptor, sequence (P14416 whole entry): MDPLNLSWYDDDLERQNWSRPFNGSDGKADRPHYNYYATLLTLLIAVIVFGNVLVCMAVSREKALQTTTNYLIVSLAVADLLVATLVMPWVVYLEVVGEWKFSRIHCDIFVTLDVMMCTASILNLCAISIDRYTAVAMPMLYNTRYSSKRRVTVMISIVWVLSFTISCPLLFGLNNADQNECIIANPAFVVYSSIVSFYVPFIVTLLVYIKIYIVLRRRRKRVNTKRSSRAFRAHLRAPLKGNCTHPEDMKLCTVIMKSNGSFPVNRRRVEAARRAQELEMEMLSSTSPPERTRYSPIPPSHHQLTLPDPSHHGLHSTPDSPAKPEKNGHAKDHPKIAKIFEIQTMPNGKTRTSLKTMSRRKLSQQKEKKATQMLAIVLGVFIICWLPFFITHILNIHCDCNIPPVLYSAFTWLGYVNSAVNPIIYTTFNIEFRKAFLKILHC

SMILES	hygroscopicity ([1]; multiple forms, all of those tested)	affinity for dopamine D2 receptors [2]	affinity for dopamine D3 receptors [3]	affinity for dopamine D3 relative to D2 receptors [3]	stability with respect to hygroscopicity and loss of water [1]	changes when exposed to very high humidity [1]	stability over the free base and over the hydrochloride salt, particularly with respect to hygroscopicity [1]	antagonist affinity for the serotonin 5-HT2C receptor [4]
COc1cc2c(cc1S(=O)(=O)c1ccc(OCc3ccc(Cl)cc3)cc1)CCN(C)CC2 [free base, 7-[4-(4-chlorobenzyloxy)benzenesulfonyl]-8-methoxy-3-methyl-2,3,4,5-tetrahydro-1H-3-benzazepine]	hygroscopic	–	–	–	–	–	–	–
COc1cc2c(cc1S(=O)(=O)c1ccc(OCc3ccc(Cl)cc3)cc1)CCN(C)CC2.O=C(O)/C=C\C(=O)O [maleate, 7-[4-(4-chlorobenzyloxy)benzenesulfonyl]-8-methoxy-3-methyl-2,3,4,5-tetrahydro-1H-3-benzazepinium maleate]	–	exhibit affinity	exhibit affinity	greater affinity for dopamine D3 than for D2 receptors	particular stability	reversible changes	improved stability	antagonist affinity
COc1cc2c(cc1S(=O)(=O)c1ccc(OCc3ccc(Cl)cc3)cc1)CCN(C)CC2.Cc1ccc(S(=O)(=O)O)cc1 [tosylate, 7-[4-(4-Chlorobenzyloxy)benzenesulfonyl]-8-methoxy-3-methyl-2,3,4,5-tetrahydro-1H-3-benzazepinium p-toluenesulfonate]	–	exhibit affinity	exhibit affinity	greater affinity for dopamine D3 than for D2 receptors	particular stability	reversible changes	improved stability	antagonist affinity
